Our source for the inhibition values is EP1816121B1, “9-Chloro-15-deoxyprostaglandin derivatives, process for their preparation and their use as medicaments” (Bayer Schering Pharma Aktiengesellschaft, priority 2005, dated 2007).

Experiment [1] has as its system Human monocyte derived dendritic cells. The experiment can be described thus: Human monocyte derived dendritic cell cytokine release, IL-10. Format: cell-based. Conditions: 18 h. The source says: (§1) Following stimulation through the toll-like receptors (TLR) DCs express and release proinflammatory cytokines and chemokines and may induce activation and proliferation of naïve T cells. The binding of an EP2 agonist to the DC EP receptor inhibits TLR4 ligand (LPS) stimulated Interleukin 12 (IL-12) release. […] Therefore an EP2 agonist skews the CD4 T cell differentiation away from the Th- lineage.
IL-10 initially designated cytokine synthesis inhibitory factor (CSIF), was originally identified as a product of Th-2 clones that suppressed the production of cytokines by Th-1 clones responding to stimulation by antigen in the presence of antigen-presenting cells. IL-10 is a dimer composed of two identical 160 amino acid subunits. Enzyme linked immuno sorbant assays (ELISA) based on antibodies specific to IL-10 are commercially available. Standards and samples are pipetted into the wells of a microplate. An antibody specific to human IL-10 is added to the wells. A substrate is added to the wells and color develops in proportion to the amount of IL-10 bound. The intensity of the color is measured.
(§2) Human monocyte derived dendritic cells are isolated from human donors using a Ficoll density gradient and residual erythrocytes removed by selective lysis. CD14 MicroBeads are used for separation of human cells based on the expression of the CD14 antigen. The dendritic cells are cultured at approximately 1.5 x 10^6 cells per ml in RPMI 1640 with fetal bovine serum, 200 ng/ml GM-CSF (Leukine) and 10 ng/ml IL-4. The cells grow-for a period of 3 days and then the media is changed. 10ng/ml LPS is used to activate the cells. 1µM of substance (EP2 agonist) and 1µM of PGE2 are added during the LPS stimulation. Cells are incubated for approximately 18 hr at 37C. IL-12 and II-10 released during activation is measured by ELISA.

Experiment [2] shares this test system. The experiment can be described thus: Inhibition of human monocyte derived dendritic cell cytokine release, IL-12. The class given is cell-based. Conditions: 18 h.
Description: as §1
IL-12 is a 75 kDa glycoprotein heterodimer (p70) composed of two genetically unrelated subunits linked by a disulfide bond. Enzyme linked immuno sorbant assays (ELISA) based on antibodies specific to IL-12 p70 are commercially available. Standards and samples are pipetted into the wells of a microplate. An antibody specific to human IL-12 is added to the wells. A substrate is added to the wells and color develops in proportion to the amount of IL-12 bound. The intensity of the color is measured.
as §2

[3] abbreviates: Donor 1, read-out: % inhibition below untreated, LPS- stimulated control.
[4] abbreviates: Donor 2, read-out: % inhibition below untreated, LPS- stimulated control.
Where [5] appears, read: Donor 3, read-out: % inhibition below untreated, LPS- stimulated control.

As to `CCCCC[C@H](O)/C=C/[C@H]1[C@H](O)CC(=O)[C@@H]1C/C=C\CCCC(=O)O` [PGE2, prostaglandin E2], the inhibition – broadly, the drop in the measured response relative to a control, in per cent – at 1 µM in experiment [1] (setting [3]) worked out at 103%; in experiment [1] (setting [4]), 134%; in experiment [1] (setting [5]), 107%; in experiment [2] (setting [3]) it was 78%; in experiment [2] (setting [4]), 44%; in experiment [2] (setting [5]), 84%. Further, in experiment [2] (Donor 4, read-out: % inhibition below untreated, LPS- stimulated control), the inhibition at 1 µM worked out at 29%.
